Data taken from US10933061B2 (Shepherd Therapeutics, Inc., priority 2017, dated 2021).
Values joined by “and” are separate entries in the source; they are usually repeats but may differ in a detail not shown here. Equal values may be shown once. Read-outs that look alike come from different tables or passages of the source.

What was measured:
[1] = system: CCC-5 cholangiocarcinoma cells; experiment: Chou-Talalay combination assay, Cell Titer Glo; assay type: cell-based; settings: combination with pyrvinium pamoate, 72 hour incubation
Method: (§1) Following a 72 hour incubation, cell viability was determined using Cell Titer Glo.

[2] = system: Kato-III gastric carcinoma cells; experiment: Chou-Talalay combination assay, Cell Titer Glo; assay type: cell-based
Method: as §1

[3] = system: SK-LMS-1 leiomyosarcoma cells; experiment: Chou-Talalay combination assay, Cell Titer Glo; assay type: cell-based; settings: combination with pyrvinium pamoate, 72 hour incubation
Method: as §1

[4] = system: NCI-H295R adrenocortical carcinoma cells; experiment: Chou-Talalay combination assay, Cell Titer Glo; assay type: cell-based; settings: combination with pyrvinium pamoate, 72 hour incubation
Method: as §1

[5] = system: CHP-212 neuroblastoma cells; experiment: Chou-Talalay combination assay, Cell Titer Glo; assay type: cell-based; settings: combination with pyrvinium pamoate, 72 hour incubation
Method: as §1

[6] = system: SK-UT-1B leiomyosarcoma cells; experiment: Chou-Talalay combination assay, Cell Titer Glo; assay type: cell-based; settings: combination with pyrvinium pamoate, 72 hour incubation
Method: as §1

[7] = system: TOV-112D ovarian carcinoma cells; experiment: Chou-Talalay combination assay, Cell Titer Glo; assay type: cell-based; settings: 72 hour incubation; for CI range: combination with pyrvinium pamoate
Method: as §1

[8] = system: TC-32 Ewing's sarcoma cells; experiment: Chou-Talalay combination assay, Cell Titer Glo; assay type: cell-based; settings: combination with pyrvinium pamoate, 72 hour incubation
Method: as §1

[9] = system: BxPC-3 pancreatic carcinoma cells; experiment: Chou-Talalay combination assay, Cell Titer Glo; settings: 72 hour incubation; for CI range: combination with pyrvinium pamoate
Method: as §1

[10] = system: TC-71 Ewing's sarcoma cells; experiment: Chou-Talalay combination assay, Cell Titer Glo; assay type: cell-based; settings: combination with pyrvinium pamoate, 72 hour incubation
Method: as §1

[11] = system: SW13 adrenocortical carcinoma cells; experiment: Chou-Talalay combination assay, Cell Titer Glo; assay type: cell-based; settings: combination with pyrvinium pamoate, 72 hour incubation
Method: as §1

[12] = system: Rh30 rhabdomyosarcoma cells; experiment: Chou-Talalay combination assay, Cell Titer Glo; assay type: cell-based; settings: combination with pyrvinium pamoate, 72 hour incubation
Method: as §1

[13] = system: SNU-16 gastric carcinoma cells; experiment: Chou-Talalay combination assay, Cell Titer Glo; assay type: cell-based; settings: 72 hour incubation; for CI range: combination with pyrvinium pamoate
Method: as §1

[14] = system: SK-UT-1 leiomyosarcoma cells; experiment: Chou-Talalay combination assay, Cell Titer Glo; assay type: cell-based; settings: 72 hour incubation; for CI range: combination with pyrvinium pamoate
Method: as §1

[15] = system: GIST-1 gastrointestinal stromal tumor cells; experiment: Chou-Talalay combination assay, Cell Titer Glo; assay type: cell-based; settings: 72 hour incubation; for CI range: combination with pyrvinium pamoate
Method: as §1

[16] = system: TFK-1 cholangiocarcinoma cells; experiment: Chou-Talalay combination assay, Cell Titer Glo; assay type: cell-based; settings: combination with pyrvinium pamoate, 72 hour incubation
Method: as §1

[17] = system: COV362 ovarian carcinoma cells; experiment: Chou-Talalay combination assay, Cell Titer Glo; assay type: cell-based; settings: combination with pyrvinium pamoate, 72 hour incubation
Method: as §1

[18] = system: Flo-1 esophageal carcinoma cells; experiment: Chou-Talalay combination assay, Cell Titer Glo; assay type: cell-based; settings: 72 hour incubation; for CI range: combination with pyrvinium pamoate
Method: as §1

[19] = system: OE-33 esophageal carcinoma cells; experiment: Chou-Talalay combination assay, Cell Titer Glo; assay type: cell-based; settings: combination with pyrvinium pamoate, 72 hour incubation
Method: as §1

[20] = system: SK-N-AS neuroblastoma cells; experiment: Chou-Talalay combination assay, Cell Titer Glo; assay type: cell-based
Method: as §1

[21] = system: Hs766t pancreatic carcinoma cells; experiment: Chou-Talalay combination assay, Cell Titer Glo; assay type: cell-based; settings: combination with pyrvinium pamoate, 72 hour incubation
Method: as §1

[22] = system: UM-Chor1 chordoma cell line; experiment: Chou-Talalay combination assay, Cell Titer Glo; assay type: cell-based; settings: combination with pyrvinium pamoate, 72 hour incubation
Method: as §1

[23] = system: Rh41 rhabdomyosarcoma cells; experiment: Chou-Talalay combination assay, Cell Titer Glo; assay type: cell-based; settings: combination with pyrvinium pamoate, 72 hour incubation
Method: as §1

[24] = system: carcinoid tumor cell line STC-1; experiment: Chou-Talalay combination assay, Cell Titer Glo; assay type: cell-based; settings: combination with pyrvinium pamoate, 72 hour incubation
Method: as §1

[25] = system: LO-68 mesothelioma cells; experiment: Chou-Talalay combination assay, Cell Titer Glo; assay type: cell-based; settings: combination with pyrvinium pamoate, 72 hour incubation
Method: as §1

[26] = system: JU-77 mesothelioma cells; experiment: Chou-Talalay combination assay, Cell Titer Glo; assay type: cell-based; settings: combination with pyrvinium pamoate, 72 hour incubation
Method: as §1

[27] = system: HepG2-C3A hepatocellular carcinoma cells; experiment: Chou-Talalay combination assay, Cell Titer Glo; settings: combination with pyrvinium pamoate, 72 hour incubation
Method: as §1

[28] = system: HepG2 hepatocellular carcinoma cells; experiment: Chou-Talalay combination assay, Cell Titer Glo; settings: combination with pyrvinium pamoate, 72 hour incubation
Method: as §1

[29] = system: HCT116 colorectal carcinoma cells; experiment: Chou-Talalay combination assay, Cell Titer Glo; assay type: cell-based; settings: combination with pyrvinium pamoate, 72 hour incubation
Method: as §1

[30] = system: Colo-205 colorectal carcinoma cells; experiment: Chou-Talalay combination assay, Cell Titer Glo; assay type: cell-based; settings: combination with pyrvinium pamoate, 72 hour incubation
Method: as §1

[31] = system: SW-1271 small cell lung carcinoma cells; experiment: Chou-Talalay combination assay, Cell Titer Glo; assay type: cell-based; settings: 72 hour incubation
Method: as §1

[32] = system: DMS-114 small cell lung carcinoma cells; experiment: Chou-Talalay combination assay, Cell Titer Glo; assay type: cell-based; settings: 72 hour incubation
Method: as §1

[33] = system: rare cancer tumor cell lines; experiment: Cell viability, panel of rare cancer tumor cell lines; assay type: cell-based
Method: In all cases, including those described below, the viable cells were determined using the CellTiter Glo® kit and a dose response curve to calculate the IC50 was generated using the PRISM software.

[34] = Kato-III, combination with pyrvinium pamoate, 72 hour incubation
[35] = SK-N-AS, combination with pyrvinium pamoate, 72 hour incubation
[36] = combination with pyrvinium pamoate

SMILES	CI range [3]	CI range [4]	CI range [5]	CI range [6]	CI range [8]	CI range [9]	CI range [10]	CI range [11]	CI range [12]	CI range [15]	CI range [17]	CI range [19]	CI range [21]	CI range [22]	CI range [23]	CI range [24]	further results
CC(=O)O[C@H]1C(=O)[C@@]2(C)[C@H]([C@H](OC(=O)c3ccccc3)[C@]3(O)C[C@H](OC(=O)[C@H](O)[C@@H](NC(=O)c4ccccc4)c4ccccc4)C(C)=C1C3(C)C)[C@]1(OC(C)=O)CO[C@@H]1C[C@@H]2O [Paclitaxel]	0.078-0.847	0.571-0.887	0.545-0.868	0.262-0.773	0.586-0.884	0.613-0.899	0.254-0.721	0.552-0.870	0.362-0.829	0.399-0.808	0.451-0.761	0.527-0.896	0.232-0.830	0.573-0.862	0.073-0.876	0.479-0.873	CI range [1]: 0.255-0.847 and 0.296-0.785; CI range [2, 34]: 0.076-0.898; CI range [7]: 0.104-0.877; CI range [13]: 0.178-0.820; CI range [14]: (0.089-0.330); CI range [16]: 0.277-0.894; CI range [18]: 0.640-0.888; CI range [20, 35]: 0.367-0.857
CCC1=C[C@@H]2CN(C1)Cc1c([nH]c3ccccc13)[C@@](C(=O)OC)(c1cc3c(cc1OC)N(C)[C@H]1[C@@](O)(C(=O)OC)[C@H](OC(C)=O)[C@]4(CC)C=CCN5CC[C@]31[C@@H]54)C2 [Vinorelbine]	–	–	–	–	–	–	–	–	–	–	–	–	–	–	–	–	CI range [25]: 0.163-0.845; CI range [26]: 0.454-0.717
O=P1(N(CCCl)CCCl)NCCCO1 (stereo not drawn) [Cyclophosphamide]	–	–	0.256-0.876	–	–	–	0.718-0.722	–	0.083-0.786	–	–	–	–	–	0.274-0.867	0.167-0.751	CI range [20]: Yes- (0.098-0.858)
N.N.O=C([O-])C1(C(=O)[O-])CCC1.[Pt+2] [Carboplatin]	0.366-0.812	0.190-0.896	0.519-0.846	–	0.101-0.836	–	0.597-0.878	0.408-0.891	0.770-0.821	–	0.447-0.837	0.647-0.863	–	–	0.162-0.820	–	CI range [2, 34]: 0.221-0.887; CI range [25]: 0.410-0.801; CI range [26]: 0.385-0.853; CI range [7]: 0.506-0.845; CI range [13]: 0.267-0.860 and 0.261-0.842; Synergy with pyrvinium pamoate [15]: No; CI range [18]: 0.253-0.892; CI range [20, 35]: 0.107-0.843
Nc1ccn([C@@H]2O[C@H](CO)[C@@H](O)C2(F)F)c(=O)n1 [Gemcitabine]	0.311-0.774	–	–	0.516-0.687	–	0.417-0.851	–	–	–	–	–	–	0.378-0.822	–	–	–	CI range [27]: 0.201-0.566; CI range [1]: 0.008-0.729; CI range [25]: 0.047-0.871; CI range [26]: 0.404-0.725; CI range [28]: 0.613-0.899; CI range [14]: (0.118-0.888); CI range [16]: 0.290-0.851
C#Cc1cccc(Nc2ncnc3cc(OCCOC)c(OCCOC)cc23)c1 [Erlotinib]	–	–	–	–	–	–	–	–	–	–	–	–	–	0.308-0.883	–	–	–
O=C1[O][Pt]2([NH][C@@H]3CCCC[C@H]3[NH]2)[O]C1=O [Oxaliplatin]	–	–	–	–	–	0.254-0.802	–	–	–	–	–	0.447-0.703	0.340-0.884	–	–	–	CI range [27]: 0.307-0.870; CI range [2]: Yes- (0.384-0.781); CI range [29]: 0.375-0.889; CI range [28]: 0.354-0.865; CI range [13]: 0.083-0.831 and 0.089-0.851; CI range [18]: 0.558-0.871
CC(=O)O[C@@]12CO[C@@H]1C[C@H](O)[C@@]1(C)C(=O)[C@H](O)C3=C(C)[C@@H](OC(=O)[C@H](O)[C@@H](NC(=O)OC(C)(C)C)c4ccccc4)C[C@@](O)([C@@H](OC(=O)c4ccccc4)[C@H]21)C3(C)C [Docetaxel]	–	–	–	–	–	–	–	–	–	–	–	–	–	–	–	–	Synergy with pyrvinium pamoate [7]: No
CCc1c2c(nc3ccc(OC(=O)N4CCC(N5CCCCC5)CC4)cc13)-c1cc3c(c(=O)n1C2)COC(=O)[C@]3(O)CC [Irinotecan]	0.362-0.885	0.285-0.855	0.719-0.891	0.235-0.705	0.612-0.764	–	0.466-0.803	0.652-0.827	0.324-0.872	0.039-0.837	0.445-0.697	0.438-0.783	–	0.580-0.772	0.068-0.711	–	CI range [2, 34]: 0.258-0.892; CI range [7]: 0.414-0.760; CI range [29]: 0.582-0.878; Synergy with pyrvinium pamoate [9]: No; CI range [30]: 0.158-0.866; Synergy with pyrvinium pamoate [13]: No; Synergy with pyrvinium pamoate [14]: No; Synergy with pyrvinium pamoate [18]: No
Cc1ccc(NC(=O)c2ccc(CN3CCN(C)CC3)cc2)cc1Nc1nccc(-c2cccnc2)n1 [Imatinib]	–	–	–	–	–	–	–	–	–	0.203-0.726	–	–	–	–	–	–	–
COc1cc([C@@H]2c3cc4c(cc3[C@@H](O[C@@H]3O[C@@H]5CO[C@@H](C)O[C@H]5[C@H](O)[C@H]3O)[C@H]3COC(=O)[C@H]23)OCO4)cc(OC)c1O [Etoposide]	–	0.717-0.864	0.763-0.891	–	0.593-0.875	–	0.677-0.883	0.487-0.623	–	–	–	–	–	–	–	0.281-0.794	CI range [29]: 0.716-0.836; Synergy with pyrvinium pamoate [31]: No; CI range [30]: 0.107-0.751; CI range [20, 35]: 0.638-0.834; Synergy with pyrvinium pamoate [32]: No
O=P1(NCCCl)OCCCN1CCCl (stereo not drawn) [Ifosfamide]	–	–	–	0.285-0.315	–	–	–	–	–	–	–	–	–	–	–	–	–
N.N.[Cl][Pt][Cl] [Cisplatin]	0.014-0.783	0.314-0.798	0.694-0.756	0.407-0.742 and 0.337-0.809	0.588-0.878	0.459-0.775 and 0.472-0.882	0.329-0.832	0.309-0.886	0.693-0.877	0.177-0.732	0.443-0.859	–	0.458-0.875	0.468-0.887	0.130-0.874	0.506-0.861	CI range [1]: 0.326-0.892; CI range [2, 34]: 0.386-0.842; CI range [7]: 0.439-0.845; CI range [31, 36]: 0.568-0.895; Synergy with pyrvinium pamoate [14]: No; CI range [16]: 0.058-0.361; CI range [20, 35]: 0.130-0.882; CI range [32, 36]: 0.572-0.883
Cc1cc(/C=C/c2ccc3cc(N(C)C)ccc3[n+]2C)c(C)n1-c1ccccc1 [pyrvinium pamoate, 3-carboxy-1-[(3-carboxy-2-oxidonaphthalen-1-yl)methyl]naphthalen-2-olate;2-[(E)-2-(2,5-dimethyl-1-phenylpyrrol-3-yl)ethenyl]-N,N,1-trimethylquinolin-1-ium-6-amine]	–	–	–	–	–	–	–	–	–	–	–	–	–	–	–	–	growth of multiple rare cancer cell lines ([33]; FIG. 14): inhibits growth; IC50 ([33]; several rare cancer tumor cell lines, 72 hours, read-out: IC50s ranging): 2 to 1000 nM
O=c1[nH]cc(F)c(=O)[nH]1 [5-FU, 5-Fluorouracil]	0.421-0.814	0.529-0.780	–	–	0.337-0.843	0.539-0.785	0.409-0.821	0.506-0.834	0.001-0.887	0.168-0.798	0.472-0.723	0.481-0.715	0.328-0.504 and 0.230-0.589	0.489-0.886	0.642-0.831	0.596-0.841	CI range [1]: 0.319-0.892; Synergy with pyrvinium pamoate [2, 34]: No; Synergy with pyrvinium pamoate [7]: No; CI range [29]: 0.806-0.886; CI range [30]: 0.094-0.867; CI range [13]: 0.547-0.850; CI range [16]: 0.303-0.814; CI range [18]: 0.378-0.859
